ΔTm and GI50 data for eleven compounds are collected here from ChEMBL document CHEMBL1143216, “Synthesis of 1,2,3-triazole-linked pyrrolobenzodiazepine conjugates employing 'click' chemistry: DNA-binding affinity and anticancer activity” (2008).

In test [1] the test system is DNA. Briefly: Binding affinity to calf thymus DNA assessed as helix melting temperature at 20 uM after 18 hrs. The test is classed as nucleic-acid assay. The settings on record: Bos taurus.
Test [2] has as its system ZR-75-1. Briefly: Growth inhibition of human Zr-75-1 cells by SRB method. Type of test: functional.
Test [3] relates to MCF7. Briefly: Growth inhibition of human MCF7 cells by SRB method. Type of test: functional.
Test [4] concerns KB. Briefly: Growth inhibition of human KB cells by SRB method. Type of test: functional.
Test [5] in a line: Growth inhibition of human Gurav cells by SRB method. Type of test: functional.
A short description of test [6]: Growth inhibition of human DWD cells by SRB method. Type of test: functional.
The test system of test [7] is A2780. Briefly: Growth inhibition of human A2780 cells by SRB method. Type of test: functional.
Test [8] deals with COLO 205. Briefly: Growth inhibition of human Colo205 cells by SRB method. The test is classed as functional.
Test [9] concerns A549. Briefly: Growth inhibition of human A549 cells by SRB method. Type of test: functional.
In test [10] the test system is PC-3. Briefly: Growth inhibition of human PC3 cells by SRB method. Type of test: functional.
For test [11], the system named is SiHa. Briefly: Growth inhibition of human SiHa cells by SRB method. The test is classed as functional.

Turning to `COC(=O)c1nnn(CCCCOc2cc3c(cc2OC)C(=O)N2CCC[C@H]2C=N3)c1C(=O)OC`, the ΔTm in test [1] is 0 °C. The GI50 in [2] came out at 2120 nM; in test [3] it was 30500 nM; in test [4] it was 2360 nM; in test [5] it was 2390 nM; in test [6], 2240 nM; in [7], 130 nM. Also, the GI50 stood at 210 nM in test [8], 28700 nM in test [9], 25400 nM in test [10] and 2040 nM in test [11].
Take `COC(=O)c1nnn(CCCCCOc2cc3c(cc2OC)C(=O)N2C[C@@H](n4nnc(C(=O)OC)c4C(=O)OC)C[C@H]2C=N3)c1C(=O)OC`: the ΔTm in test [1] was found to be 5.9 °C. For the same compound, the GI50 in test [2] was determined as 5510 nM; in test [3], 2050 nM; in test [4] it was 1920 nM; in test [5], 1820 nM; in test [6] it was 150 nM; in test [7] it was 160 nM. In addition, the GI50 in test [8] is 1920 nM; in test [9] it was 2410 nM; in [10] it was 170 nM; in [11], 120 nM.
Consider `COC(=O)c1nnn(CCCOc2cc3c(cc2OC)C(=O)N2C[C@@H](n4nnc(C(=O)OC)c4C(=O)OC)C[C@H]2C=N3)c1C(=O)OC`, for which the ΔTm in test [1] was 4.5 °C. Further, the GI50 is 2120 nM in [3]; 1050 nM in test [4]; 2420 nM in test [5]; 190 nM in test [7]; 2010 nM in [8]; 7120 nM in test [9]. The compound further registered a GI50 in test [11] of 2170 nM.
For `COC(=O)c1nnn(CCCCCOc2cc3c(cc2OC)C(=O)N2CCC[C@H]2C=N3)c1C(=O)OC`, in test [1], the ΔTm was determined as 3.6 °C. Besides, the GI50 in test [2] was 1930 nM; in [4], 7190 nM; in test [5], 26800 nM; in [6], 26000 nM; in test [7], 26000 nM; in test [8], 2170 nM. Also, the figures for the concentration for 50% growth inhibition (GI50) in test [9], in [10] and in [11] were 6120 nM, 29100 nM and 2150 nM, respectively.
For `COC(=O)c1nnn([C@H]2C[C@H]3C=Nc4ccccc4C(=O)N3C2)c1C(=O)OC`, the ΔTm in test [1] was found to be 2.3 °C.
As to `COC(=O)c1nnn([C@H]2C[C@H]3C=Nc4cc(OCc5ccccc5)c(OC)cc4C(=O)N3C2)c1C(=O)OC`, in [1], the ΔTm stood at 2.2 °C. In addition, the GI50 stood at 27600 nM in test [3]; 29700 nM in [6]; 25800 nM in [7]; 27900 nM in [8]; 2040 nM in test [11].
Consider `COC(=O)c1nnn(CCCCOc2cc3c(cc2OC)C(=O)N2C[C@@H](n4nnc(C(=O)OC)c4C(=O)OC)C[C@H]2C=N3)c1C(=O)OC`, for which, in test [1], the ΔTm came to 0 °C.
As to `COc1cc2c(cc1O)N=C[C@@H]1CCCN1C2=O`, the shift in melting temperature (ΔTm) in test [1] was found to be 0.7 °C. Besides, the GI50 in test [2] is 2370 nM; in [3], 170 nM; in test [4], 170 nM; in test [5], 160 nM; in test [6], 1490 nM; in test [7], 140 nM. For the same compound, the GI50 in test [8] came out at 110 nM; in test [9], 160 nM; in test [10], 200 nM; in test [11], 170 nM.
In the case of `COC(=O)c1nnn(CCCOc2cc3c(cc2OC)C(=O)N2CCC[C@H]2C=N3)c1C(=O)OC`, in test [1], the ΔTm was determined as 3.1 °C. The GI50 in test [2] is 2530 nM; in test [4] it was 26600 nM; in test [5], 25100 nM; in [6] it was 25500 nM; in test [7] it was 2480 nM; in [8] it was 2090 nM. For the same compound, the GI50 is 24700 nM in test [9], 28700 nM in test [10] and 2120 nM in test [11].
Consider `COc1cccc2c1C(=O)c1c(O)c3c(c(O)c1C2=O)C[C@@](O)(C(=O)CO)C[C@@H]3O[C@H]1C[C@H](N)[C@H](O)[C@H](C)O1` [DOXORUBICIN], for which the GI50 in [2] came out at 1790 nM; in [3] it was 180 nM; in test [4] it was 170 nM; in [5], 170 nM; in test [6], 100 nM; in [7], 170 nM. For the same compound, the GI50 was found to be 150 nM in test [8], 7250 nM in [9], 1810 nM in [10] and 180 nM in [11].
On to `COC(=O)c1nnn([C@H]2C[C@H]3C=Nc4cc(OC)c(OC)cc4C(=O)N3C2)c1C(=O)OC`, for which, in test [1], the ΔTm worked out at 2.8 °C. Also, the GI50 amounted to 2470 nM in test [2]; 2170 nM in test [3]; 26400 nM in test [4]; 2390 nM in test [5]; 2260 nM in test [6]; 914 nM in [7]. For the same compound, the GI50 in [8] was 1090 nM; in test [10], 2230 nM; in [11] it was 210 nM.
